{"source": "patent US8129527B2", "about": "“Analogs of dehydrophenylahistins and their therapeutic use” (Nereus Pharmacuticals, Inc., priority 2006, dated 2012)", "key": {"[1]": {"test_system": "B16-F10 melanoma", "assay": "Cell growth inhibition assay, resazurin (Example 11)", "format": "cell-based", "conditions": "Mus musculus, 48 hours, mean ± SD where n ≧ 3", "experimental": "(§1) The growth inhibitory activity of NPI-2421, NPI-2463, NPI-2503 and NPI-2504 were determined against selected human (colorectal adenocarcinoma, HT-29; breast adenocarcinoma, MDA-MB-231; non-small cell lung carcinoma, NCI-H292 and prostate carcinomas, PC-3 and DU 145) and mouse (melanoma, B16-F10) tumor cell lines.\n(§2) HT-29 (HTB-38), MDA-MB-231 (HTB-26), NCI-H292 (CRL-1848), B16-F10 (CRL-6475), PC-3 (CRL-1435) and DU 145 (HTB-81) cells were all purchased from the ATCC. The cell lines were maintained in their respective ATCC recommended culture media and cultured in an incubator at 37° C. in 5% CO2 and 95% humidified air.\n(§3) 20 mM stock solutions of compounds were prepared in 100% DMSO and stored at −80° C. 10× concentrated serial dilutions of the compounds were prepared in B16-F10 cell culture medium for final concentrations ranging from 20 μM to […]. Ten μl volumes of the 10× serial dilutions were added to the test wells in triplicate and the plates returned to the incubator for 48 hours. The final concentration of DMSO was 0.25% in all samples.\n(§4) Following 48 hours of drug exposure, 10 μl of 0.2 mg/ml resazurin (obtained from Sigma-Aldrich Chemical Co.) in Mg^2+, Ca^2+ free phosphate buffered saline was added to each well and the plates were returned to the incubator for 3-6 hours. […] Resazurin dye in medium without cells was used to determine the background, which was subtracted from the data for all experimental wells."}, "[2]": {"test_system": "DU 145 prostate carcinoma", "assay": "Cell growth inhibition assay, resazurin (Example 11)", "format": "cell-based", "conditions": "Homo sapiens, 48 hours", "experimental": "as §1, §2, §3, §4"}, "[3]": {"test_system": "HT-29 colorectal adenocarcinoma", "assay": "Cell growth inhibition assay, resazurin (Example 11)", "format": "cell-based", "conditions": "Homo sapiens, 48 hours, mean ± SD where n ≧ 3", "experimental": "as §1, §2, §3, §4"}, "[4]": {"test_system": "NCI-H292 non-small cell lung carcinoma", "assay": "Cell growth inhibition assay, resazurin (Example 11)", "format": "cell-based", "conditions": "Homo sapiens, 48 hours, mean ± SD where n ≧ 3, ** n = 1", "experimental": "as §1, §2, §3, §4"}, "[5]": {"test_system": "MDA-MB-231 breast adenocarcinoma", "assay": "Cell growth inhibition assay, resazurin (Example 11)", "format": "cell-based", "conditions": "Homo sapiens, 48 hours, mean ± SD where n ≧ 3", "experimental": "as §1, §2, §3, §4"}, "[6]": {"test_system": "PC-3 prostate carcinoma", "assay": "Cell growth inhibition assay, resazurin (Example 11)", "format": "cell-based", "conditions": "Homo sapiens, 48 hours, mean ± SD where n ≧ 3, ** n = 1", "experimental": "as §1, §2, §3, §4"}, "[7]": {"test_system": "MES-SA/Dx5 multidrug resistant", "assay": "Cell growth inhibition assay, resazurin (Example 11)", "format": "cell-based, human", "conditions": "for EC50: Homo sapiens, MES-SA/Dx5, mean ± standard deviation of three independent experiments; for cytotoxic activity against both MES-SA and MES-SA/Dx5: in words; for Fold change: ratio of EC50 values (MES-SA/Dx5:MES-SA)"}, "[8]": {"test_system": "MES-SA human uterine sarcoma", "assay": "Cell growth inhibition assay, resazurin (Example 11)", "format": "cell-based", "conditions": "mean ± standard deviation of three independent experiments"}, "[9]": {"test_system": "HL-60 human acute promyelocytic leukemia cells", "assay": "Cell growth inhibition assay, resazurin (Example 11)", "format": "cell-based", "conditions": "mean values of two independent experiments", "experimental": "Human uterine sarcoma (MES-SA; CRL-1976), its multidrug resistant derivative (MES-SA/Dx5; CRL-1977), human acute promyelocytic leukemia cells (HL-60; CCL-240) and its multidrug resistant derivative (HL-60/MX2; CRL-2257) were purchased from ATCC and maintained in appropriate culture media. The cells were cultured in an incubator at 37° C. in 5% CO2 and 95% humidified air.\nFor cell growth inhibition assays, MES-SA and MES-SA/Dx5 cells were both seeded at 3×10^3 cells/well in 90 μl complete media into 96 well (Corning; 3904) black-walled, clear-bottom tissue culture plates and the plates were incubated overnight to allow cells to establish and enter log phase growth. HL-60 and HL-60/MX2 cells were both seeded at 5×10^4 cells/well in 90 μl complete media into 96 well plates on the day of compound addition. 20 mM stock solutions of the compounds were prepared in 100% DMSO and stored at −80° C. […] Ten μl volumes of the 10× serial dilutions were added to the test wells in triplicate and the plates returned to the incubator for 48 hours. The final concentration of DMSO was 0.25% in all samples.\nas §4\nHL-60/MX2 is a multidrug resistant tumor cell line derived from the human promyelocytic leukemia cell line, HL-60 and expresses reduced topoisomerase II activity. The data presented in Table 20 summarize the growth inhibitory effects of NPI-2421, NPI-2463, NPI-2503, NPI-2504 and NPI-2506 against HL-60 and its multidrug resistant derivative HL-60/MX2. Mitoxantrone, the topoisomerase II targeting agent was included as a control."}, "[10]": {"test_system": "HT-29 cells", "assay": "Additional cytotoxicity assays, resazurin (Table 3.1)", "format": "cell-based, human", "conditions": "Table 3.1", "in_short": "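Cells exposed 48 hours to compounds at final concentrations 2.0×10^−5 M to 2.0×10^−10 M, in triplicate. Viability then read as resazurin fluorescence after 3-4 hours with dye; cell-free dye background subtracted.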"}, "[11]": {"test_system": "HuVECs", "assay": "Cell growth inhibition assay, resazurin (Example 11)", "format": "cell-based, human", "conditions": "for EC50: Homo sapiens, HuVEC, 48 hours, mean values of two independent experiments; for cytotoxicity against HuVECs: in words", "experimental": "The growth inhibitory activity of NPI-2421 and NPI-2463 were determined against human umbilical […] endothelial cells, HuVECs.\nHuVECs (Cambrex Biosciences; CC2519A) were maintained in EGM-2 medium at 37° C. in 5% CO2 and 95% humidified air.\nFor cell growth inhibition assays, HuVECs were seeded at 1×10^3 cells/well in 90 μl complete media into a Corning 3904 black-walled, clear-bottom tissue culture plates and the plates were incubated overnight to allow cells to establish and enter log phase growth. 20 mM stock solutions of compounds were prepared in 100% DMSO and stored at −80° C. […] Ten μl volumes of the 10× serial dilutions were added to the test wells in triplicate and the plates returned to the incubator for 48 hours. The final concentration of DMSO was 0.25% in all samples.\nas §4"}, "[12]": {"test_system": "HL-60/MX2 multidrug resistant", "assay": "Cell growth inhibition assay, resazurin (Example 11)", "format": "cell-based, human", "conditions": "for EC50: Homo sapiens, HL60/MX2, HL-60/MX2, mean values of two independent experiments; for cytotoxic activity against both HL-60 and HL-60/MX2: in words; for Fold change: ratio of EC50 values (HL-60/MX2:HL-60)"}, "[13]": {"test_system": "HT-29 human colorectal carcinoma cells", "assay": "Cell growth inhibition assay, resazurin (Table 3.2)", "format": "cell-based", "conditions": "Table 3.2, HT-29 cells, read-out: EC50 (M) Mean", "in_short": "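HT-29 cells seeded at 5×10^3/well overnight, then exposed in triplicate to compounds at final 20 μM to […] (0.25% DMSO) for 48 h at 37° C. Viability read by resazurin reduction after 3-4 h further incubation, with cell-free dye background subtracted.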"}}, "data": [{"smiles": "CC(C)(C)c1ocnc1/C=c1\\[nH]c(=O)/c(=C/c2ccccc2)[nH]c1=O", "note": "[Compound 2421, tBu-delta-PLH-oxazole]", "values": [{"measurement": "EC50", "setting": "[1]", "value": 19, "unit": "nM"}, {"measurement": "EC50", "setting": "[2]", "value": 25, "unit": "nM"}, {"measurement": "EC50", "setting": "[3]", "value": "21 ± 9", "unit": "nM"}, {"measurement": "EC50", "setting": "[4]", "value": 41, "unit": "nM"}, {"measurement": "EC50", "setting": "[5]", "value": "20 ± 6", "unit": "nM"}, {"measurement": "EC50", "setting": "[6]", "value": "> 2000", "unit": "nM"}, {"measurement": "EC50", "setting": "[7]", "value": "17 ± 4", "unit": "nM"}, {"measurement": "cytotoxic activity against both MES-SA and MES-SA/Dx5", "setting": "[7]", "value": "retained equivalent cytotoxic activity"}, {"measurement": "Fold change", "setting": "[7]", "value": 1.4}, {"measurement": "EC50", "setting": "[8]", "value": "12 ± 3", "unit": "nM"}, {"measurement": "EC50", "setting": "[9]", "value": 23, "unit": "nM"}, {"measurement": "EC50", "setting": "[10]; Homo sapiens, HT-29, read-out: EC50 (M) Mean", "value": "2.22e-08", "unit": "M"}, {"measurement": "% cytotox Mean", "setting": "[10]", "value": 88, "unit": "%"}, {"measurement": "EC50", "setting": "[11]", "value": 12, "unit": "nM"}, {"measurement": "cytotoxicity against HuVECs", "setting": "[11]", "value": "cytotoxic against HuVECs"}, {"measurement": "EC50", "setting": "[12]", "value": 14, "unit": "nM"}, {"measurement": "cytotoxic activity against both HL-60 and HL-60/MX2", "setting": "[12]", "value": "retained cytotoxic activity"}, {"measurement": "Fold change", "setting": "[12]", "value": 0.6}]}, {"smiles": "CC(C)(C)c1ocnc1/C=c1\\[nH]c(=O)/c(=C/c2cccc(F)c2)[nH]c1=O", "note": "[Compound 2463, tBu-Oxadelta-PLH-m-F]", "values": [{"measurement": "EC50", "setting": "[1]", "value": "14 ± 5", "unit": "nM"}, {"measurement": "EC50", "setting": "[2]", "value": 32, "unit": "nM"}, {"measurement": "EC50", "setting": "[3]", "value": "16 ± 3", "unit": "nM"}, {"measurement": "EC50", "setting": "[4]", "value": "24 ± 11", "unit": "nM"}, {"measurement": "EC50", "setting": "[5]", "value": "25 ± 9", "unit": "nM"}, {"measurement": "EC50", "setting": "[6]", "value": "13 ± 5", "unit": "nM"}, {"measurement": "EC50", "setting": "[7]", "value": "14 ± 3", "unit": "nM"}, {"measurement": "cytotoxic activity against both MES-SA and MES-SA/Dx5", "setting": "[7]", "value": "retained equivalent cytotoxic activity"}, {"measurement": "Fold change", "setting": "[7]", "value": 1.2}, {"measurement": "EC50", "setting": "[8]", "value": "12 ± 4", "unit": "nM"}, {"measurement": "EC50", "setting": "[9]", "value": 26, "unit": "nM"}, {"measurement": "EC50", "setting": "[13]", "value": "1.71e-08", "unit": "M"}, {"measurement": "EC50", "setting": "[11]", "value": 10, "unit": "nM"}, {"measurement": "cytotoxicity against HuVECs", "setting": "[11]", "value": "cytotoxic against HuVECs"}, {"measurement": "EC50", "setting": "[12]", "value": 14, "unit": "nM"}, {"measurement": "cytotoxic activity against both HL-60 and HL-60/MX2", "setting": "[12]", "value": "retained cytotoxic activity"}, {"measurement": "Fold change", "setting": "[12]", "value": 0.5}]}]}
